Entries after “also recorded” stand apart in the source; their conditions may differ. Where two headings read alike, the source gives them in different places.
Legend:
HIV-1 BaL (R5) = assay: Anti-HIV activity in infected TZM-bl cells (luciferase), pre- and post-infection treatment; type: cell-based, Human Immunodeficiency Virus Type 1 (HIV-1); details: for anti-HIV activity against R5 strain in words: HIV-1 BaL; for inhibition at 18 µM / inhibition at 37 µM / inhibition at 75 µM / inhibition at 150 µM / inhibition at 300 µM: read-out: Percentage inhibition of HIV-1 BaL replication
Procedure: (§1) TZM-bl cells were plated in a flat-bottom 96-well plate (Corning Inc., Corning, New York, NY, USA) at the concentration of 1.2 × 10^5 cells/well and incubated for 24 h at 37 °C before the addition or not of each compound at non-cytotoxic concentrations (pre-infection treatment). Then, 1 h later the treatment was removed, and the infection was performed by adding 10 ng/mL of HIV-1IIIB p24 (X4) or 2 ng/mL of HIV-1 BaL (R5). After 3 h, the virus was removed and washed, and the compound dilutions were added again (post-infection treatment). Additionally, three wells were left for the negative control (cells without treatment or infection), the positive control of infection (cells infected with the virus without treatment), and the positive control of inhibition (AZT). Antiviral activity was quantified 48 h after treatment by measuring luciferase activity, which is directly proportional to the number of infectious virus particles in the sample [23]. The luciferase activity was quantified via luminescence emitted by the cells using Bright-GloTM Luciferase Assay System (Promega Corp., Madison, WI, USA), following the manufacturer’s instructions. Briefly, 100 μL of the reagent was added to 100 μL of TZM-bl cells and incubated for at least 2 min, protected from light. Relative light units (RLUs) were measured using the multi-mode plate reader (Thermo ScientificTM VarioskanTM LUX). Each experimental condition was performed in triplicate in two independent experiments (n = 6). The percentage inhibition was calculated as follows: 100 − (RLU of treated cells − RLU of uninfected cells/RLU of infection control − RLU of uninfected cells) × 100.

HIV-1IIIB (X4) = assay: as above; type: cell-based, Human Immunodeficiency Virus Type 1 (HIV-1); details: for anti-HIV activity against X4 strain in words: HIV-1IIIB; for inhibition at 18 µM / inhibition at 37 µM / inhibition at 75 µM / inhibition at 150 µM: Human immunodeficiency virus 1, TZM-bl, read-out: Percentage inhibition of HIV-1IIIB (X4 strain) replication
Procedure: as §1

MTT cytotoxicity assay = type: cell-based; details: human; TZM-bl cells, MTT, 48 h
Procedure: The in vitro cytotoxic effect of the di-halogenated compounds on TZM-bl cells was determined with the MTT (3-(4,5-Dimethylthiazol-2-yl)-2,5-diphenyltetrazolium bromide) assay (Sigma-Aldrich, St. Louis, MO, USA). For this purpose, 1.2 × 10^5 cells/well were seeded in 96-well plates, which were incubated at 37 °C and 5% CO2 for 24 h. DMEM was used as a negative control and serial two-fold dilutions of the compounds were performed at 9.37 to 300 μM in DMEM supplemented with 5% FBS. A total of 100 μL/well of each dilution was added and incubated for 48 h. Subsequently, the cells were washed 2 times with 1X PBS, and 30 μL of MTT solution (2 mg/mL) was added and incubated for 2 h at 37 °C, in a light-protected culture. Then, 100 µL of DMSO was added to dissolve the formazan crystals, placed in shaking for 15 min, and absorbance reading was performed at 570 nm, using the Microplate Spectrophotometer (Thermo Scientific™ Multiskan™ GO, Waltham, MA, USA). Two independent experiments evaluated each experimental condition in quadruplicate (n = 8). The percentage of viability was calculated concerning the absorbance of the controls without a compound (100% viability). The 50% cytotoxic concentration was defined as the concentration of each compound that can reduce cell viability to 50% of the untreated cell control. CC50 was calculated and analyzed with GraphPad Prism version 8.0.1 (GraphPad Software, Inc., San Diego, CA, USA).

[1] = Human immunodeficiency virus 1, BAL, 18 µM, TZM-bl cells
[2] = Human immunodeficiency virus 1, BAL, 37 µM, TZM-bl cells
[3] = Human immunodeficiency virus 1, BAL, 75 µM, TZM-bl cells
[4] = Human immunodeficiency virus 1, BAL, 150 µM, TZM-bl cells
[5] = Human immunodeficiency virus 1, BAL, TZM-bl
[6] = Human immunodeficiency virus 1, BAL, TZM-bl cells

SMILES | anti-HIV activity against R5 strain in words (HIV-1 BaL (R5); TZM-bl cells) | inhibition at 18 µM (HIV-1 BaL (R5); [1]) | inhibition at 37 µM (HIV-1 BaL (R5); [2]) | inhibition at 75 µM (HIV-1 BaL (R5); [3]) | inhibition at 150 µM (HIV-1 BaL (R5); [4]) | anti-HIV activity against X4 strain in words (HIV-1IIIB (X4); TZM-bl cells) | inhibition at 18 µM (HIV-1IIIB (X4); 18 µM, TZM-bl cells) | inhibition at 37 µM (HIV-1IIIB (X4); 37 µM, TZM-bl cells) | inhibition at 75 µM (HIV-1IIIB (X4); 75 µM, TZM-bl cells) | inhibition at 150 µM (HIV-1IIIB (X4); 150 µM, TZM-bl cells) | inhibition at 18 µM (HIV-1 BaL (R5); [5]) | inhibition at 37 µM (HIV-1 BaL (R5); [5]) | inhibition at 75 µM (HIV-1 BaL (R5); [5]) | inhibition at 150 µM (HIV-1 BaL (R5); [5]) | inhibition at 18 µM (HIV-1IIIB (X4)) | inhibition at 37 µM (HIV-1IIIB (X4)) | inhibition at 75 µM (HIV-1IIIB (X4)) | inhibition at 150 µM (HIV-1IIIB (X4)) | further results
CN(C)[C@@H](Cc1cc(Br)c(O)c(Br)c1)C(=O)O [TDB-2M] | did not inhibit the replicative activity | -57.9% | -45.5% | -19.2% | -51.9% | did not inhibit the replicative activity | -1.3% | 15.9% | -2.9% | 2.9% | – | – | – | – | – | – | – | – | –
CN(C)CCc1cc(Cl)c(O)c(Cl)c1 [YDC-2M] | had no activity | – | – | – | – | had no activity | – | – | – | – | -4.1% | 8.8% | 19.1% | -2.8% | 15.1% | -22% | 22.6% | 29.1% | –
COc1c(Br)cc(CCN(C)C)cc1Br [YODB-2M] | – | – | – | – | – | – | – | – | – | – | -51.1% | -73.9% | -88.5% | -14.9% | -24.6% | -20% | -20.2% | -17% | –
CN(C)CCc1cc(Br)c(O)c(Br)c1 [YDB-2M] | had no antiviral activity; also recorded: did not show significant anti-HIV activity | – | – | – | – | had no antiviral activity | – | – | – | – | 26.1% | 2.7% | 7% | -45.8% | 14.6% | -7% | 9.8% | -20.7% | –
COc1c(Cl)cc(CC[N+](C)(C)C)cc1Cl [YODC-3M] | – | -19.7% | -7.7% | -1% | -1.3% | – | 3.2% | -5.8% | -8.6% | 0.5% | – | – | – | – | – | – | – | – | –
COc1c(Cl)cc(CCN(C)C)cc1Cl [YODC-2M] | – | – | – | – | – | – | – | – | – | – | 24.5% | 12.2% | 26.9% | -96.2% | -0.3% | 2.3% | -2.2% | 2.5% | –
C[N+](C)(C)[C@@H](Cc1cc(Cl)c(O)c(Cl)c1)C(=O)O [TDC-3M] | showed antiviral activity | – | 20.4% | 39.7% | 29.6% | no antiviral activity | -111% | 9.6% | 8.1% | 15.1% | – | – | – | – | – | – | – | – | CC50 at 48 h (MTT cytotoxicity assay): > 300 µM; inhibition at 300 µM (HIV-1 BaL (R5); [6]): 25.9%
C[N+](C)(C)[C@@H](Cc1cc(Br)c(O)c(Br)c1)C(=O)O [TDB-3M] | did not inhibit the replicative activity | -20.5% | -9.6% | -18% | -61.9% | did not inhibit the replicative activity | 2.7% | 21.6% | -15.7% | -22.4% | – | – | – | – | – | – | – | – | –
CN(C)[C@@H](Cc1cc(Cl)c(O)c(Cl)c1)C(=O)O [TDC-2M] | showed antiviral activity | – | 33% | 37.9% | 32.3% | no antiviral activity | -4.8% | -15.4% | -39.5% | -72.2% | – | – | – | – | – | – | – | – | CC50 at 48 h (MTT cytotoxicity assay): ~174 µM; IC50 (HIV-1 BaL (R5); Human immunodeficiency virus 1, BAL, TZM-bl, 48 h, HIV-1 BaL (R5), TZM-bl cells, luciferase): 141 µM; inhibition at 300 µM (HIV-1 BaL (R5); [6]): 47.3%; SI (HIV-1 BaL (R5); selectivity index against HIV-1 BaL (CC50 and IC50 of Table 3)): ~1.24
COc1c(Br)cc(C[C@@H](C(=O)O)[N+](C)(C)C)cc1Br [TODB-3M] | showed no activity | -26% | -43.3% | -17.7% | -9.2% | showed no activity | 12% | -41.1% | 3.2% | -34% | – | – | – | – | – | – | – | – | –
COc1c(Br)cc(CC[N+](C)(C)C)cc1Br [YODB-3M] | – | -25.1% | -14.1% | -9% | 9.3% | – | -3.1% | -10.5% | 20.3% | 13.1% | – | – | – | – | – | – | – | – | CC50 at 48 h (MTT cytotoxicity assay): 78.7 µM

Reference: article PMC10605077, “In Vitro and In Silico Antiviral Activity of Di-Halogenated Compounds Derived from L-Tyrosine against Human Immunodeficiency Virus 1 (HIV-1)” (Current Issues in Molecular Biology, 2023)
